Measurements taken from the supplement of paper PMC10307832.

How the values were obtained:
Assay in all cases: relative viability (nuclei count vs DMSO), 5 days (fraction); higher = more cells survive
AT-7519 + OSI-027 = compound: O=C(NC1CCNCC1)c1n[nH]cc1NC(=O)c1c(Cl)cccc1Cl [AT-7519] + COc1cccc2cc(-c3nc([C@H]4CC[C@H](C(=O)O)CC4)n4ncnc(N)c34)[nH]c12 [OSI-027] (partner 0.5 µM)
Procedure, shortened: (§1)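 Relative viability equals treated-well nuclei counts divided by vehicle-well nuclei counts. Counts came from 4× images of lung cancer cell lines grown in 1536-well plates for 5 days after pin-tool dosing on the day after seeding. Dosing used one drug alone or a fixed anchor-drug dose plus five library-drug doses (not always all listed) in √10 steps, and values are medians of duplicate plates.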

[1] = compound: C1=CC2=C(C=C(C(=C2N=C1)O)N=NC3=CC4=C(C=C3)C=C(C=C4)S(=O)(=O)O)S(=O)(=O)O + COc1cc2c(Oc3ccc(NC(=O)C4(C(=O)Nc5ccc(F)cc5)CC4)cc3F)ccnc2cc1OCCCN1CCOCC1 [Foretinib] (partner 0.25 µM)
Procedure, shortened: as §1

AT-7519 + AZD7762 = compound: O=C(NC1CCNCC1)c1n[nH]cc1NC(=O)c1c(Cl)cccc1Cl [AT-7519] + NC(=O)Nc1cc(-c2cccc(F)c2)sc1C(=O)N[C@H]1CCCNC1 [AZD7762] (partner 0.2 µM)
Procedure, shortened: as §1

[2] = compound: C1=CC2=C(C=C(C(=C2N=C1)O)N=NC3=CC4=C(C=C3)C=C(C=C4)S(=O)(=O)O)S(=O)(=O)O + CS(=O)(=O)CCNCc1ccc(-c2ccc3ncnc(Nc4ccc(OCc5cccc(F)c5)c(Cl)c4)c3c2)o1 [Lapatinib] (partner 2 µM)
Procedure, shortened: as §1

Cell Line	relative viability (AT-7519 + OSI-027; first compound 0.01 µM)	relative viability (AT-7519 + OSI-027; first compound 0.03162 µM)	relative viability (AT-7519 + OSI-027; first compound 0.3162 µM)	relative viability (AT-7519 + OSI-027; first compound 1 µM)	relative viability ([1]; first compound 0.08 µM)	relative viability ([1]; first compound 0.253 µM)	relative viability ([1]; first compound 0.8 µM)	relative viability ([1]; first compound 2.53 µM)	relative viability ([1]; first compound 8 µM)	relative viability (AT-7519 + AZD7762; first compound 0.01 µM)	relative viability (AT-7519 + AZD7762; first compound 0.03162 µM)	relative viability (AT-7519 + AZD7762; first compound 0.3162 µM)	relative viability (AT-7519 + AZD7762; first compound 1 µM)	relative viability ([2]; first compound 0.08 µM)	relative viability ([2]; first compound 0.253 µM)	relative viability ([2]; first compound 0.8 µM)	relative viability ([2]; first compound 2.53 µM)	relative viability ([2]; first compound 8 µM)
201T	0.694	0.739	1.01	0.812	1.21	1.14	1.15	1.15	1.05	0.595	0.591	0.645	0.683	0.975	1.04	1.01	0.997	1.02
A549					1.06	0.954	0.929	0.928	0.928					1.08	0.991	0.972	0.947	1.01
A-427	0.419	0.389	0.477	0.187	0.986	1.06	1.01	1.08	1.03	0.791	0.627	0.883	0.502	1.16	0.825	0.974	1.05	1.1
ABC-1	0.523	0.455	0.326	0.151	1.19	1.02	0.915	1.27	0.374	0.922	0.782	0.952	0.907	1.25	0.989	1.08	1.18	1.02
BEN	0.541	0.278	0.55	0.412	0.489	0.521	0.732	0.686	0.429	0.685	0.754	0.697	0.704	0.956	0.623	0.669	0.766	0.654
CAL-12T	0.673	0.649	0.296	0.135	1.08	1.25	1.12	1.06	0.772	0.701	0.623	0.58	0.354	0.593	0.58	0.629	0.63	0.663
COR-L23	0.672	0.778	0.459	0.294	1.01	0.961	1.02	1.06	0.995					1.3	0.971	0.92	1	1.15
COR-L 105	0.6	0.58	0.674	0.401	0.961	0.94	1.03	1.02	0.886					0.401	0.394	0.378	0.377	0.358
Calu-6					0.887	0.846	0.92	0.886	0.912					1.16	1.03	1.01	1.02	1.03
ChaGo-K-1	0.642	0.556	0.457	0.447	0.953	0.986	0.855	1.02	0.927	0.895	0.838	0.843	0.844					
EBC-1					0.1	0.106	0.104	0.0986	0.0948					0.202	0.242	0.27	0.2	0.238
EKVX	0.725	0.536	0.687	0.709	0.818	0.712	0.797	0.861	0.272	0.798	0.608	0.822	0.719	0.215	0.215	0.172	0.208	0.219
EMC-BAC-2	0.363	0.343	0.358	0.476	1.07	0.987	1.04	1.07	0.842	1.09	1.1	1.03	1.19	0.826	0.881	0.877	0.927	0.74
EPLC-272H	0.283	0.296	0.264	0.206	0.779	0.752	0.704	0.646	0.723	0.321	0.21	0.302	0.336	1	0.947	0.895	1	0.935
H3255	0.572	0.517	0.591	0.508	0.693	0.851	0.835	0.916	0.628	0.987	0.903	0.937	0.876	0.283	0.236	0.255	0.246	0.237
HARA	0.425	0.36	0.523	0.423	1.23	0.896	0.914	0.901	0.821	0.221	0.301	0.263	0.415	0.836	0.611	0.681	0.869	0.778
HCC-15	0.673	0.632	0.54	0.34	1.15	0.972	0.936	1.07	0.985	1.18	1.37	1.17	1.14	0.963	0.841	0.843	0.832	0.888
HCC-44	0.516	0.493	0.28	0.317						0.983	0.998	1.08	1	1.08	0.975	0.96	1.05	1.09
HCC-78	0.386	0.395	0.349	0.341	0.608	0.571	0.525	0.563	0.3	0.609	0.636	0.616	0.815	0.763	0.625	0.702	0.922	0.192
HCC-366	0.769	0.808	0.89	0.718	0.927	0.92	0.891	0.964	0.851	0.326	0.228	0.293	0.371	1.13	0.954	1.03	1.02	1.02
HCC-827	0.842	0.72	0.705	0.539	1.12	0.955	0.995	1.05	1.08	0.215	0.17	0.21	0.237	0.19	0.159	0.185	0.189	0.188
HOP-62	0.857	0.675	0.846	0.809	1.23	1.03	1.13	1.15	1.04	0.589	0.557	0.621	0.743	1.32	0.925	0.972	1.05	0.993

Cell Line	relative viability (AT-7519 + OSI-027; first compound 0.01 µM)	relative viability (AT-7519 + OSI-027; first compound 0.03162 µM)	relative viability (AT-7519 + OSI-027; first compound 0.3162 µM)	relative viability (AT-7519 + OSI-027; first compound 1 µM)	relative viability ([1]; first compound 0.08 µM)	relative viability ([1]; first compound 0.253 µM)	relative viability ([1]; first compound 0.8 µM)	relative viability ([1]; first compound 2.53 µM)	relative viability ([1]; first compound 8 µM)	relative viability (AT-7519 + AZD7762; first compound 0.01 µM)	relative viability (AT-7519 + AZD7762; first compound 0.03162 µM)	relative viability (AT-7519 + AZD7762; first compound 0.3162 µM)	relative viability (AT-7519 + AZD7762; first compound 1 µM)	relative viability ([2]; first compound 0.08 µM)	relative viability ([2]; first compound 0.253 µM)	relative viability ([2]; first compound 0.8 µM)	relative viability ([2]; first compound 2.53 µM)	relative viability ([2]; first compound 8 µM)
IA-LM					1.3	1.01	1.1	1.18	1.12					0.681	0.718	0.707	0.796	0.793
LC-2-ad	0.733	0.866	0.862	0.514	1.13	0.874	0.966	0.906	0.865	0.77	0.844	0.826	0.945	0.982	0.937	0.922	0.954	0.589
LCLC-103H	0.455	0.479	0.46	0.456	0.87	0.852	0.684	0.749	0.747	0.8	0.739	0.807	0.901					
NCI-H441	0.679	0.603	0.582	0.408	1.11	1.06	1.04	1.07	1.05	1.01	1.16	1.2	1.02					
NCI-H520	0.254	0.285	0.26	0.241	1.01	0.828	0.901	0.887	1.05					1.1	0.791	0.833	0.798	0.848
NCI-H522		0.77	0.609	0.792						1	0.661	0.859	0.904					
NCI-H661	0.671	0.694	0.564	0.333	1.12	0.989	0.981	1.08	1.04					0.541	0.49	0.431	0.626	0.49
NCI-H1299					1.17	1.04	1.04	1.09	1.06					0.959	0.913	0.944	0.956	0.939
NCI-H1563	0.737	0.794	0.722	0.728	1.04	1.02	0.91	0.996	0.895					0.957	1.02	0.916	0.976	1.13
NCI-H1623	0.529	0.424	0.432	0.362	0.845	0.874	0.854	0.832	0.6									
NCI-H1648	0.265		0.262	0.293						0.63		0.578	1.12					
NCI-H1650	0.779	0.598	0.46	0.181	1.34	1.17	1.38	1.01	0.448					0.753	0.739	0.714	0.821	0.734
NCI-H1703					0.334		0.356	0.363	0.302			0.152	0.148	1.36	0.886	1.06	1.01	1.01
NCI-H1792			0.869	0.791						0.759	0.554	0.571	0.467	0.996	0.853	0.834	0.916	0.913
NCI-H2009	0.638	0.665	0.587	0.321	1.3	1.25	1.18	1.28	0.739					0.898	0.889	0.871	0.884	0.836
NCI-H2023	0.435	0.347	0.351	0.203	0.769	0.747	0.794	0.997	0.876					0.825	0.773	0.899	0.95	0.818
NCI-H2228	0.517	0.586	0.469	0.446	0.902	0.826	0.87	0.878	0.923					0.966	1.29	0.986	1.21	1.06
NCI-H2342	0.628	0.533	0.591	0.62	1.22	1.1	1.15	1.11	1.05	0.514	0.507	0.508	0.447					
SK-LU-1	0.356	0.315	0.282	0.168	1.01	0.768	0.787	0.787	0.889					1.06	0.88	0.943	0.881	0.959
SK-MES-1	0.615	0.58	0.564	0.332	0.86	0.856	0.874	0.761	1.15					0.482	0.444	0.468	0.464	0.546
SW 900	0.489	0.581	0.624	0.424	0.806	0.9	0.912	0.786	0.741	0.637	0.616	0.677	0.477					
SW 1573	0.604	0.659	0.436	0.107	1.1	1.02	1.02	1.01	0.444					1.05	1	1.04	1.14	0.353
